This assay relates to green peach aphid (Myzus persicae). The assay is described as follows: Myzus test (MYZUPE spray treatment). It counts as in vivo. Conditions: spray treatment of Chinese cabbage discs, application rate 500 g/ha; 100% = all aphids killed. Here is the method: Myzus Test (MYZUPE Spray Treatment) [table] To produce a suitable preparation of active compound, 1 part by weight of active compound is mixed with the stated amounts of solvents and emulsifier, and the concentrate is diluted with emulsifier-containing water to the desired concentration. Discs of Chinese cabbage (Brassica pekinensis) which are infested by all stages of the green peach aphid (Myzus persicae) are sprayed with an active compound preparation of the desired concentration. After the desired period of time, the effect in % is determined. 100% means that all aphids have been killed; 0% means that none of the aphids have been killed.

Consider `Cn1ncc(O)c(-c2ccc(Cl)c(Cl)c2)c1=O` [I-1-a-4], for which the “effect in % (aphids killed)” value is reported as “at least 80%”.

The values above are taken from patent publication US8188008B2, “Herbicidally and insecticidally active 4-phenyl-substituted pyridazinones” (Bayer Cropscience AG, priority 2008, dated 2012).
